One assay deals with COX-2. Briefly: qRT-PCR gene expression of COX-2 in NHEM after 10 days of treatment. Format: cell-based, human. Particulars: FIG. 3A. How it is done:
(§1) The efficacy of acetyl trifluoromethylphenyl valylglycine to modulate key gene markers in the inflammatory pathway as it relates to post inflammatory hyperpigmentation conditions was evaluated. Specifically, four well plates were seeded with a single cell culture of normal human epidermal melanocyte (NHEM), and grown in a culture medium (namely, culture medium no. M254500, obtained from ThermoFisher™) and supplemented with Gibco™ human melanocyte growth supplement (namely, Human Melanocyte Growth Supplement-2 no. S0165, obtained from ThermoFisher™) at a density of 10,000 cells/cm^2 for 3 to 4 days.
(§2) The culture medium was then replaced by culture mediums containing different treatments. Specifically, the cell cultures were treated with 10 μL of one of Compositions C-E once a day for ten days (except weekends). After 10 days, the cells were trypsinized and centrifuged at 180×gravity for 7 minutes followed by RNA isolation using a QIAshredder cell lysate homogenizer no. […] The RNA was then quantified using the NanoDrop Spectrophotometer.
(§3) After RNA isolation was completed, samples of 1 μg of RNA from each cell culture was used for cDNA reactions for reverse transcription. […] The ΔΔCt values were then determined for each biological replicate by normalizing to the appropriate untreated control average ΔCt value. The ΔΔCt values were then used to calculate relative quantification (RQ) values.
On the technique in general: Real-time PCR tracks product formation cycle by cycle.

In assay [1] the test system is single cell culture models (Normal Human Epidermal Melanocytes). The assay can be described thus: Melanin synthesis inhibition in single cell culture model. Format: cell-based. The following applies: FIG. 5. The protocol: (§4) Tri-culture models, co-culture models, and single cell culture models were treated with a composition containing acetyl trifluoromethylphenyl valylglycine to assess the effects on different skin cells. Specifically, the three cultures for each of the tri-culture models (Normal Human Epidermal Melanocytes, Normal Human Epidermal Keratinocytes, and Normal Human Dermal Fibroblast), co-culture models (Normal Human Epidermal Melanocytes and Normal Human Epidermal Keratinocytes), and single cell culture models (Normal Human Epidermal Melanocytes) were grown for four days. The cultures were then treated once a day for 10 days with a composition containing 10% DMSO, water, and lipoic acid (Composition G) in an amount to deposit […] to the cell culture models, a composition containing 10% DMSO, water, and acetyl trifluoromethylphenyl valylglycine (Composition H) in an amount to deposit […] to the cell culture models, or a composition containing 10% DMSO, water, and acetyl trifluoromethylphenyl valylglycine (Composition I) in an amount to deposit […] to the cell culture models. The media for the cultures was changed each day over the ten-day period.
(§5) After the 10 days, the cells of the culture were lysed and the melanin content was measured using a procedure and equipment similar to that described in Example 2. […]

Assay [2] deals with human primary melanocytes. Briefly: Melanin content of human primary melanocyte cultures treated for ten days, with or without prostaglandin E2. The following applies: FIGS. 1 and 2. Format: cell-based. How it is done:
Six cultures of human primary melanocytes were grown for four days. Thereafter, the cultures were treated with 10 μL of one of Compositions A-E each day for ten days. Composition A contained 0.005 wt. % of acetyl trifluoromethylphenyl valylglycine, 2 wt. % ethanol, and the remainder being water. Composition B contained 0.05 wt. % of acetyl trifluoromethylphenyl valylglycine, 2 wt. % ethanol, and the remainder being water. Composition C contained 30 nM of prostaglandin E2, 2 wt. % ethanol, and the remainder being water. Composition D contained 0.005 wt. % of acetyl trifluoromethylphenyl valylglycine, 30 nM of prostaglandin E2, 2 wt. % ethanol, and the remainder being water. Composition E contained 0.05 wt. % of acetyl trifluoromethylphenyl valylglycine, 30 nM of prostaglandin E2, 2 wt. % ethanol, and the remainder being water. All weight percentages for Compositions A-E were based on the total weight of the respective composition. […]
After the 10 days, the cells of the culture were lysed and the melanin content was measured. Specifically, the cells were stained with Fontana Masion Staining and measured with a plate reader. A BCA assay was performed to quantify the protein concentration. […] To eliminate the melanin content caused by increased NHEM cell number in the system, the final melanin level was calculated by dividing the protein content in each culture. […]

Assay [3] concerns co-culture models (Normal Human Epidermal Melanocytes and Normal Human Epidermal Keratinocytes). Briefly: Melanin synthesis inhibition in co-culture model. The following applies: co-culture on melanocytes and keratinocytes, once a day for 10 days; FIG. 5. The class given is cell-based. The protocol: as §4, §5
A further assay concerns p38 MAPK. Briefly: qRT-PCR gene expression of p38 in NHEM after 10 days of treatment. The class given is cell-based, human. The following applies: FIG. 3B. The protocol: as §1, §2, §3
Assay [4] relates to tri-culture model (Normal Human Epidermal Melanocytes, Normal Human Epidermal Keratinocytes, and Normal Human Dermal Fibroblast). The assay can be described thus: Melanin synthesis inhibition in tri-culture model. The following applies: 100 μM, tri-culture model (K/M/F), once a day for 10 days; FIG. 5. The class given is cell-based. How it is done:
as §4, §5

Where [5] appears, read: with 30 nM prostaglandin E2, NHEM.
Setting [6] is: prostaglandin E2 alone (30 nM), NHEM.

Turning to `CC(=O)N(c1cccc(C(F)(F)F)c1)C(C(=O)NCC(=O)O)C(C)C` (stereo not shown) [acetyl trifluoromethylphenyl valylglycine], the “level of COX-2 induced by prostaglandin E2” value in the assay with COX-2 (setting [5]) is on record as “significantly attenuated”. The “inhibitory effect on melanin synthesis relative to tri-culture” value in assay [1] (melanocytes cultures compared with tri-culture) is recorded as “less than the observed in the tri-culture”. In addition, the melanin synthesis entry in assay [1] (melanocytes cultures, once a day for 10 days) is given as “an inhibitory effect was observed”; in assay [3], “did not appear to inhibit melanin synthesis”. For the same compound, in assay [2] (with 30 nM prostaglandin E2, once a day for ten days, melanin normalised to protein content), the “melanin synthesis after induction by prostaglandin E2” value is “reduces melanin synthesis”. Also, the “level of P38 MAPK induced by prostaglandin E2” value in the assay on p38 MAPK (setting [5]) is listed as “significantly attenuated”. Besides, in assay [4], the L-Tyrosine-induced melanin synthesis entry is “inhibited L-Tyrosine-induced melanin synthesis”.
With `CCCCC[C@H](O)/C=C/[C@H]1[C@H](O)CC(=O)[C@@H]1C/C=C\CCCC(=O)O` [prostaglandin E2, reference compound], in the assay with COX-2 (setting [6]), the COX-2 expression entry was “triggered the cascade”. Also, the melanin production result in assay [2] (prostaglandin E2 alone (30 nM), once a day for ten days) is reported as “stimulates melanin production”. Besides, the “p38 MAPK expression” value with p38 MAPK (setting [6]) is “triggered the cascade”.

The record behind these values is patent publication US12036300B2, “Methods and compositions for improving skin” (L'OREAL, priority 2021, dated 2024).
